Structures can show the parent of a compound that is named as a salt. Where two headings read alike, the source gives them in different places.

We go through ten compounds from patent US5811078A, “Spray formulations of antihyperalgesic opiates and method of treating topical hyperalgesic conditions therewith” (Adolor Corporation, priority 1997, dated 1998).

The nature of series [1]: Peripheral selectivity: ratio of ED50 in the tail-withdrawal assay over ED50 in the anti-diarrheal (castor oil) assay. Format: in vivo, female Wistar rats. From the text: The cut off time is 15 seconds. […] After each determination the tail is carefully dried.
Each animal is kept in an individual cage.

For the next series, the system named is central nervous system. Particulars: reported prior use, antidiarrheal formulations, hydrochloride, cited from earlier work.

`CCN(C)C(=O)C(CCN1CCC(O)(c2ccc(Cl)cc2)CC1)(c1ccccc1)c1ccccc1` [Compound 2, 4-(p-Chlorophenyl)-4-hydroxy-N-ethyl-N-methyl-ααdiphenyl-1-piperidinebutyramide]: the “Peripheral Selectivity (ED50tw/ED50 Castor Oil)” value (“Peripheral Selectivity” below) in series [1] (po) is reported as ≥ 1,231. `CN(C)C(=O)C(CCN1CCC(O)(c2ccc(Br)cc2)CC1)(c1ccccc1)c1ccccc1` [Compound 3, 4-(p-Bromophenyl)-4-hydroxy-N,N-dimethyl-αα-diphenyl-1-piperidinebutyramide]: in series [1] (po), the “Peripheral Selectivity” value stood at 800. On to `O=C(N1CCCC1)C(CCN1CCC(O)(c2ccc(Cl)c(Cl)c2)CC1)(c1ccccc1)c1ccccc1` [Compound 4], for which, in series [1] (oral, rats, tail withdrawal ED50 over castor oil test ED50 (both mg/kg)), the “Peripheral Selectivity” value is listed as greater than 640. Regarding `O=C(N1CCCC1)C(CCN1CCC(O)(c2ccc(Cl)cc2)CC1)(c1ccccc1)c1ccccc1` [Compound 5, 1-{4-[(4-Chlorophenyl)4-hydroxy-1-piperidino]-2,2-diphenylbutyryl}pyrrolidine], the “Peripheral Selectivity” value in series [1] (po) came to 593. Consider `CN(C)C(=O)C(CCN1CCC(O)(c2ccc(Cl)cc2)CC1)(c1ccccc1)c1ccccc1` [Compound 6, 4-(p-Chlorophenyl)-4-hydroxy-N,N-dimethyl-αα-diphenyl-1-piperidinebutyramide], for which the “Peripheral Selectivity” value in series [1] (po) is 533. Consider `CN(C)C(=O)C(CCN1CCC(O)(c2ccc(F)cc2)CC1)(c1ccccc1)c1ccccc1` [Compound 7, 4-(p-Fluorophenyl)-4-hydroxy-N,N-dimethyl-αα-diphenyl-1-piperidinebutyramide], for which the “Peripheral Selectivity” value in series [1] (po) came out at 500. Take `CN(C)C(=O)C(CCN1CCC(O)(c2ccc(Cl)c(C(F)(F)F)c2)CC1)(c1ccccc1)c1ccccc1` [Compound 8, 4-(4-Chloro3-trifluoromethyl-phenyl)-4-hydroxy-N,N-dimethyl-αα-diphenyl-1-piperidinebutyramide]: in series [1] (po), the “Peripheral Selectivity” value was 467. With `O=C(N1CCCC1)C(CCN1CCC(O)(c2ccccc2)CC1)(c1ccccc1)c1ccccc1` [Compound 9, 1-[4-(4-Hydroxy-4phenyl-1piperidino)-2,2-diphenylbutyryl]pyrrolidine], in series [1] (po), the “Peripheral Selectivity” value came out at 437.

Turning to `O=C(N1CCOCC1)C(CCN1CCC(O)(c2cccc(C(F)(F)F)c2)CC1)(c1ccccc1)c1ccccc1` [Compound 10], in series [1] (po), the “Peripheral Selectivity” value is given as greater than 251. With `CN(C)C(=O)C(CCN1CCC(O)(c2ccc(Cl)cc2)CC1)(c1ccccc1)c1ccccc1` [loperamide, 4-(p-chlorophenyl)-4-hydroxy-N-N-dimethyl-αα-diphenyl-1-piperidinebutyramide hydrochloride], the figures for the CNS effects result with central nervous system and in the series with central nervous system (listed as Loperamide HCl) were “devoid of CNS effects” and “completely free of the undesirable CNS effects”, respectively.
